The values below come from US8501734B2, “Medical intervention in haematological cancers” (Oncotyrol-Center for Personalized Cancer Medicine GmbH …, priority 2008, dated 2013).

Series [1] relates to OPM2 cells. Description: Annexin V/PI apoptosis assay (FACS), OPM2 cells. Type of series: cell-based. Also noted: apoptosis induction: unit not given here.
In series [2] the test system is human epidermoid carcinoma cell line A431. Kind of series: Apoptosis induction in A431 cells. Type of series: cell-based. How it is done:
After treatment adherent cells were trypsinized (as described before), and resuspended in corresponding full medium. Suspension cells or trypsinized adherent cells, supernatant and washing solution (1×PBS from washing before trypsinization) were pooled and then spun down (300 g for 3 min) washed in 2 ml and resuspended in 1000 of annexin V binding buffer and mixed with 2 μg/ml annexin V-Allophycocyanin (APC) (BD-Pharmingen, San Diego, Calif., USA) and 50 ng/ml of propidium iodide (PI; Sigma Aldrich). At least 10.000 cells were measured per sample using a Becton Dickinson FACSCalibur flow Cytometer (San Jose, Calif., USA). Percentage of Annexin V negative and PI negative cells were depicted in the figures. […] Briefly, BMMCs were stained with a mixture of annexin V/FITC (Alexis Coorp., Laeufelfingen, Switzerland), propidium iodide (Sigma), anti-CD38-PE and anti-CD45-PC5 for 15 min at room temperature and immediately analyzed by flow cytometry. The percentages of viable cells (i.e. cells negative for annexin V/FITC and PI) within the MM (CD38^posCD45^low/absent) and non-MM fraction (CD38^neg/CD45^pos) were determined by flow cytometry.
Adherent cells were grown in 24-well plates to confluence and treated with 40 μg/ml Imiquimod® for 24 h. Cells were then trypsinized, suspended in full medium, stained for AnnexinV/PI and apoptosis was measured as described before. […]

The test system of series [3] is primary MM cells (CD38highCD45low). Kind of series: Annexin V/PI apoptosis assay, primary MM cells from patient bone marrow aspirates. Type of series: cell-based, human. The conditions noted are these: 40 μg/ml, 8 h or 24 h, time dependent. How it is done:
For collection of primary multiple myeloma cells, bone marrow aspirates from iliac crests were collected during routine examinations after obtaining informed patient consent. Bone marrow mononuclear cells (BMMCs) were separated by density centrifugation. Fresh blood samples were diluted 1:1 with RPMI 1640 medium and layered over Biocoll separating solution (1.077 g/ml, Biochrom AG, Berlin; blood/RPMI1640/Biocoll; 1:1:1, v/v/v). Centrifugation was carried out for 20 min at 400 g. […] The percentage of multiple myeloma cells within the BMMCs was determined by flow cytometry. Briefly, 2×10^5 cells were stained for 15 min with fluorochrome-labelled antibodies to CD38 (phycoerythrin, PE) and CD45 (phycoerythrin-cyanin 5, PC5) (both from Beckman Coulter Inc., Fullerton, Calif., USA), washed with PBS and were immediately analyzed using the FC500 flow cytometer and the RXP1.0 software (Beckman Coulter). MM cells were detected by their high expression of CD38 and weak to absent expression of CD45.
After treatment adherent cells were trypsinized (as described before), and resuspended in corresponding full medium. […] At least 10.000 cells were measured per sample using a Becton Dickinson FACSCalibur flow Cytometer (San Jose, Calif., USA). […]

Series [4] deals with OPM2 cells. Description: Growth of OPM2 cells under multiple low doses (cell counting). Type of series: cell-based. How it is done:
2×10^5 OPM2 cells in 1 ml of full medium were cultured in 24-well plates in duplicates for 8 days. For the first three days the appropriate amount of Imiquimod® (1, 2, 5, 5, or 10 μg/ml) was added daily. For determination of absolute cell numbers 100 μl of cell suspension were taken on days 1-5 and day 8 and cell number was determined using the CASY Cell Counter Model DT (Schärfe System GmbH, Reutlingen, Germany). On the fourth day cells were spun down (200 g, 2 min) and 600 μl of the remaining 700 μl of supernatant (100 μl were left to keep cell pellet undisturbed) were removed and 600 μl of fresh full medium was added to the cell culture.

The subject of the next series is OPM-2 cells xenograft. Type of series: in vivo, NIH III-nude mice. The procedure: Average tumor diameter and mouse body weight was measured every 3rd day.
Treatment was started when tumors reached an average diameter of 0.8 cm and mice were sacrificed when the tumor reached an average diameter of 1.5 cm. A maximum volume of 150 μl of Imiquimod®, in a concentration of 2.5 mg/ml in H2O, was injected subcutaneously into the left flank of the mice. The same amount of H2O was injected in the same way into control mice. Tumor volume was calculated with the formula 4π/3×(width/2)2×(length/2).

Series [5] concerns squamous cell carcinoma cells. The conditions noted are these: 50 μg/ml, 24 h; cited from earlier work.

The structures appear in SMILES notation.

On to `CC(C)Cn1cnc2c(N)nc3ccccc3c21` [Imiquimod, 1-(2-methylpropyl)-1H-imidazo[4,5-c]quinolin-4-amine], for which the apoptosis induction entry with OPM2 cells [1] (OPM2 cells, 24 h, Imi 20 μg/ml alone) was “+”; with OPM2 cells [1] (OPM2 cells, 48 h, Imi 20 μg/ml alone), “++”; in the series with OPM2 cells [1] (multiple myeloma cells, 10 μg/ml, 24 h) it was “apoptosis induction”; in series [2] it was “no significant apoptosis induction”; in series [3], “significantly induced apoptosis”. Besides, the “apoptosis induction, single agent” value in the series with OPM2 cells [1] (OPM2 cells, 24 h, Imiquimod 20 μg/ml or Akt inhibitor alone) was “some apoptosis”. Also, the “apoptosis induction in AnnexinV/PI FACS analysis assay” value with OPM2 cells [1] (multiple myeloma cells, 40 μg/ml) came to 70%. The cell growth inhibition entry was “sufficient to irreversibly inhibit cell growth” in the series on OPM2 cells [4] (3-times given dose of 10 μg/ml) and “sufficient to significantly block the growth potential” with OPM2 cells [4] (triple treatment with 5 μg/ml). The “changes in tumor volume” value in the series with OPM-2 cells xenograft (10 mg/kg s.c. twice daily) is “ranging from tumor regression and stagnation, via slower growth to increase in tumor volume comparable to controls”. Besides, the “histological analysis of tumors (haematoxylin and eosin)” value in the series on OPM-2 cells xenograft (10 mg/kg s.c. twice daily) is on record as “regions of massive tissue destruction”. This compound yielded a tumor regression with OPM-2 cells xenograft (10 mg/kg s.c. twice daily) of 5 cases. In the series with OPM-2 cells xenograft (10 mg/kg s.c. twice daily), the “weight development, treated versus control mice” value is listed as “no difference”. Further, in the series on OPM-2 cells xenograft (10 mg/kg s.c. twice daily vs H2O, p=0.027, t-test), the “survival of treated mice” value is “significantly increased”. Further, the side effects entry with OPM-2 cells xenograft (10 mg/kg s.c. twice daily, besides scars at the injection site) is recorded as “no obvious side effects could be observed”. Also, the apoptotic cells in series [5] is listed as 17.3%.
